Consider three molecules from US20240325351A1, “METHOD OF ADMINISTRATION” (Cybin UK Ltd., priority 2023, published 2024).

The test system of data set [1] is patients with moderate-severe Major Depressive Disorder. Description: MADRS in unblinded study of single IV dose of DMT fumarate (NCT05553691). The following applies: for MADRS score: individual patients; for MADRS score / Remission (MADRS score ≤10) / Response (≥50% reduction in MADRS score from baseline): fumarate. The data set is classed as in vivo, human. The text has this: (§1) An unblinded study of a single dose of N,N-dimethyltryptamine [DMT] fumarate in patients currently taking a selective serotonin reuptake inhibitor (SSRI) for their depression, but for whom the SSRI is not fully relieving their depression is ongoing (ClinicalTrials.gov Identifier: NCT05553691). The study comprises two groups:
(§2) “Test Cohort”: Patients who are currently on a stable treatment course of SSRIs, which have been ineffective in fully relieving their depression symptoms (SSRI prescribed outside of study). Patients were administered a single dose of DMT fumarate by intravenous infusion; and
(§3) “Control Cohort”: Patients who are not currently taking any pharmacological treatment for their depression (control group). Patients were administered a single dose of DMT fumarate by intravenous infusion.
(§4) Patients were recruited with moderate-severe Major Depressive Disorder (“MDD”) as defined by a Hamilton Depression Rating Scale (HAM-D) score of ≥14. Efficacy was assessed using the Montgomery-Asberg Depression Rating scale (MADRS) to measure any change in patients' depression symptoms from baseline (Day 0). Additional exploratory endpoints include the Beck Depression Inventory (BDI) to assess patients' self-reported depression, and the State-Trait Anxiety Inventory (STAI-T) to assess patients' self-reported anxiety.
(§5) DMT fumarate is administered by intravenous infusion on Day 1.

Data set [2] shares this test system. The data set is described as follows: STAI-T (State-Trait Anxiety Inventory), same study. The data set is classed as in vivo, human. The following applies: for STAI-T score: individual patients, fumarate.
From the text: as §1, §2, §3, §4, §5

Data set [3] has the same test system. The data set is described as follows: Safety & Tolerability, same study. The data set is classed as in vivo, human.
From the text: as §1, §2, §3, §5
The administration of DMT fumarate was well-tolerated by all patients in both the test and the control cohorts, with no apparent differences between cohorts.

The test system is the same in data set [4]. The data set is described as follows: BDI-II (Beck Depression Inventory), same study. The note with it: for BDI-II score: individual patients, fumarate. Type of data set: in vivo, human.
From the text: as §1, §2, §3, §4, §5

The test system of data set [5] is major depressive disorder. The note with it: in vivo; cited from earlier work.
For data set [6] the following is noted: 33 mg; cited from earlier work.
Setting [7] is: Control Cohort, n=5, Day 8 vs Day 0.
Where [8] appears, read: Control Cohort, n=5, Day 15 vs Day 0.
[9] abbreviates: Control Cohort, n=5, Day 29 vs Day 0.
The mark [10] stands for this setting: Test Cohort (on SSRI), n=12, Day 8.
The mark [11] stands for this setting: Test Cohort (on SSRI), n=12, Day 8 vs Day 0.
[12] abbreviates: Test Cohort (on SSRI), n=12, Day 15.
The mark [13] stands for this setting: Test Cohort (on SSRI), n=12, Day 15 vs Day 0.
The mark [14] stands for this setting: Test Cohort (on SSRI), n=12, Day 29.
[15] abbreviates: Test Cohort (on SSRI), n=12, Day 29 vs Day 0.
[16] abbreviates: Test Cohort (on stable SSRI), Day 15.
Setting [17] is: Test Cohort (on stable SSRI), Day 29.

Several values for one entry are separate records, joined by “and”; a condition that tells them apart may be missing. Equal values may be shown once.

Consider `CN(C)CCc1c[nH]c2ccccc12.O=C(O)/C=C/C(=O)O` [DMT fumarate, N,N-dimethyltryptamine fumarate], for which the MADRS score in data set [1] (Control Cohort (no pharmacological treatment), Day 8) is 7 and 21 (2×) and 24 and 9; in data set [1] (Control Cohort (no pharmacological treatment), Day 15), 8 and 18 and 21 and 26 and 7; in data set [1] (Control Cohort (no pharmacological treatment), Day 29) it was 17 and 18 and 15 and 30 and 0; in data set [1] (Test Cohort (on stable SSRI), Day 8, single IV infusion Day 1) it was 1 (3×) and 0 (2×) and 27 and 21 and 10 and 7 and 2 (2×) and 8; in data set [1] (setting [16]), 1 and 0 (4×) and 27 and 15 and 8 and 3 and 5 and 4 and 9; in data set [1] (setting [17]), 11 and 0 and 8 and 1 and 6 and 7 and 2. Moreover, the “MADRS Mean” value in data set [1] (Control Cohort, n=5, Day 8) is listed as 16.4; in data set [1] (Control Cohort, n=5, Day 15), 16.0; in data set [1] (Control Cohort, n=5, Day 29), 16.0; in data set [1] (setting [10]), 6.7; in data set [1] (setting [12]), 6.0; in data set [1] (setting [14]), 3.0. The “MADRS Mean % change from Baseline” value in data set [1] (setting [7]) is reported as −53.1%; in data set [1] (setting [8]), −54.2%; in data set [1] (setting [9]), −54.8%; in data set [1] (setting [11]), −78.1%; in data set [1] (setting [13]) it was −81.2%; in data set [1] (setting [15]), −90.2%. Also, the “Number of participants in remission (MADRS ≤10)” value was “One” in data set [1] (Control Cohort, n=5, Day 29); 11 participants in data set [1] (setting [14]); 10 participants in data set [1] (Test Cohort (on SSRI), n=12, all other time points (Day 8, Day 15)). Moreover, the “Remission (MADRS score ≤10)” value in data set [1] (Control Cohort, n=5, Day 29) came out at 20%; in data set [1] (setting [14]) it was 92%. Further, the “Response (≥50% reduction in MADRS score from baseline)” value in data set [1] (Control Cohort, n=5, Day 29) was found to be 80%; in data set [1] (setting [14]) it was 100%. Further, the STAI-T score in data set [2] (Control Cohort, Day 8) was 60 and 40 and 44 and 50 and 38; in data set [2] (Control Cohort, Day 15), 58 and 46 and 39 and 52 and 41; in data set [2] (Control Cohort, Day 29) it was 51 and 49 and 47 and 59 and 32; in data set [2] (Test Cohort (on stable SSRI), Day 8), 47 and 40 (2×) and 66 and 49 and 34 (2×) and 26 and 46 and 28 and 29 and 38; in data set [2] (setting [16]), 44 and 30 and 62 and 45 and 33 (2×) and 40 (2×) and 42 and 25 and 22 and 32; in data set [2] (setting [17]), 45 and 34 (2×) and 41 and 43 and 28 and 40 and 32 (2×) and 44 and 26 and 23. Also, the “STAI-T Mean” value in data set [2] (Control Cohort, n=5, Day 8) came out at 46.4; in data set [2] (Control Cohort, n=5, Day 15) it was 47.2; in data set [2] (Control Cohort, n=5, Day 29) it was 47.6; in data set [2] (setting [10]), 39.8; in data set [2] (setting [12]) it was 37.3; in data set [2] (setting [14]) it was 35.2. Moreover, the “STAI-T Mean % change from Baseline” value is recorded as −28.9% in data set [2] (setting [7]); −27.6% in data set [2] (setting [8]); −27.2% in data set [2] (setting [9]); −33.6% in data set [2] (setting [11]); −37.5% in data set [2] (setting [13]); −41.0% in data set [2] (setting [15]). In addition, the Tolerability result in data set [3] (all patients in both test and control cohorts, no apparent differences between cohorts) is “well-tolerated”. In addition, the “Drug-related serious adverse events” value in data set [3] (both cohorts) was “No drug-related serious adverse events reported”. Further, in data set [3] (both cohorts), the “Resolution of drug-related AEs” value was “majority of drug-related AEs were resolved during the dosing visit”. Further, the “Severity of drug-related AEs” value in data set [3] (both cohorts) is “mild or moderate”. Further, the entries for the “Number of drug-related adverse events (AEs)” value in data set [3] (control cohort) and in data set [3] (test cohort (on SSRI)) were 3 and 8, respectively. Besides, the BDI-II score in data set [4] (Control Cohort, Day 15) was 20 and 17 (2×) and 22 and 8; in data set [4] (Control Cohort, Day 29) it was 12 and 13 and 16 and 31 and 2; in data set [4] (setting [16]), 0 (3×) and 3 (2×) and 29 and 6 and 5 (2×) and 1 (2×) and 8; in data set [4] (setting [17]), 0 (5×) and 4 and 11 and 7 (2×) and 1 and 2 and 5. The “BDI-II Mean” value in data set [4] (Control Cohort, n=5, Day 15) stood at 16.8; in data set [4] (Control Cohort, n=5, Day 29), 14.8; in data set [4] (setting [12]) it was 5.1; in data set [4] (setting [14]), 3.1. Also, the “BDI-II Mean % change from Baseline” value in data set [4] (setting [8]) was −54%; in data set [4] (setting [9]) it was −59%; in data set [4] (setting [13]) it was −84%; in data set [4] (setting [15]), −88%.

With `CN(C)CCc1c[nH]c2ccccc12` [N,N-dimethyltryptamine, 2-(1H-indol-3-yl)-N,N-dimethylethanamine], the “Durability of antidepressant effect” value in data set [5] was “three months or more”.

As for `CC(C)N(CCc1c[nH]c2cccc(OC(=O)CCCC(=O)O)c12)C(C)C` [iprocin-4-glutarate, N,N diisopropyltryptamine-4-glutarate], in data set [6], the “Mean duration of the subjective experience” value is 3.7 h.
